Measured values reported in patent US20190313680A1, “MODIFYING OR ENHANCING A FLAVOR OF FOOD AND BEVERAGE PRODUCTS” (Tate & Lyle Ingredients Americas LLC, priority 2016, published 2019).

Legend:
[1] = in accordance with FEMA GRAS guidance; cited from earlier work
panellists [2] = experiment: Determination of the sweet-taste threshold of allulose: two-alternative forced choice test (2-AFC) against 1.5% by weight sucrose solution; format: in vivo
Source text: Described herein is a method for determining the sweetness threshold of allulose. The method is a two-alternative forced choice test against threshold levels of sweetness (ASTM Designation E2164-08: Standard Test Method for Directional Difference Test). This test is used to determine the amount of allulose at which its sweetness is less than that of the recognition threshold concentration of sucrose. The recognition threshold concentration of sucrose is 1.5% by weight in accordance with FEMA (Flavor Extracts Manufacturing Association) GRAS™ guidance.
The sweet-taste threshold of allulose was determined in accordance with FEMA (Flavor Extracts Manufacturing Association) guidance. The standard process described in this guidance requires use of a two-alternative forced choice test (2-AFC testing) against threshold levels of sweetness. FEMA guidance states that the standard for this determination is a 1.5% by weight sucrose aqueous solution (i.e. the sucrose is present in an amount of 1.5% by weight relative to the total weight of the solution). AFC tests are to be performed up to the concentration where the proposed substance exceeds the sweetness levels of sucrose at threshold levels. FEMA guidance further recommends that 30 observations be made to assess the difference in sweetness and that the differences must be found to be statistically significant to assess the effect.
The number of panellists used across replicates always exceeded the minimum of 30 observations as recommended by the FEMA sensory testing guidance. As replicates were performed, beta-binomial statistics were required to be consistent with published requirements (BI, Jian. 2006. Sensory Discrimination tests and Measurements. Chapter. 6, p. 106-129, 1st ed. Blackwell Publishing, Ames, Iowa). In such tests, when the beta-binomial term A exceeds zero, the beta-binomial is required. However, if A is zero or negative, then the panel is not over-dispersed and traditional binomial statistics can be used.
Samples were prepared on the morning of testing. Reference solutions were made as a point of comparison for all tests. The reference solutions were simple solutions of 1.5% by weight sucrose (commercial Domino brand sugar) in water. Test solutions were made from Tate & Lyle Dolcia Prima® allulose syrup standardized such that the amount of allulose in the test solutions was 1.925%, 2.310%, 2.695%, 2.8875%, or 3.080% by weight relative to the total weight of the solution.
Replicated pairs of samples at a single test concentration were chosen from those above and served on a given day. Panellists were presented products in coded 2-oz soufflé cups containing approximately 1.5 oz of liquid, and asked which sample was sweeter. Products were served at room temperature. The serving order was randomized based on a complete block design, such that the order of samples was randomized among panellists and between replicates.

panelists = experiment: 2-AFC flavor and preference test, cotton candy flavored water (Example 1); format: in vivo; settings: allulose in an amount below its sweetness threshold in cotton candy flavored beverage
Method: Cotton candy flavor samples in accordance with Table 2 below were prepared by weighing all of the ingredients into a container and blending until fully mixed.
The N&A Cotton Candy flavor was obtained from Givaudan (product code YX-953-327-3). […] DOLCIA PRIMA® was obtained from Tate & Lyle. The DOLCIA PRIMA® Allulose Syrup comprises allulose in an amount of 71% by weight on a dry solids basis. Accordingly, in the Test Sample, allulose was present at an amount of approximately 1.5% by weight relative to the total weight of the solution. The deionized water was produced by reverse osmosis.
The samples in Table 2 were subjected to 2-AFC testing. As already described herein, an AFC test is an alternative forced choice test. It asks a panelist to identify the sample that is most or least intense in a specified attribute among a given number of samples. A 2-AFC test chooses among 2 samples, a 3-AFC test chooses among 3 samples, etc. The attributes that are specified are generally attributes which panelists are likely to be able to recognize and identify a difference. A 2-AFC for sweetness would present panelists with two samples and ask them of the two which is sweeter. These differ from triangle tests or other types of tests in that an attribute is specified for the panelist to focus on. […]

panellists [3] = experiment: 2-AFC flavor and preference test, salted caramel flavored water (Example 2); format: in vivo; settings: allulose in an amount below its sweetness threshold in salted caramel flavored beverage
Method: Salted caramel flavor samples in accordance with Table 4 below were prepared by weighing all of the ingredients into a container and blending until fully mixed.
The N&A Salted Caramel flavor was obtained from Flavor & Fragrance Specialities (product code YX-226E 032). […] DOLCIA PRIMA® was obtained from Tate & Lyle. The DOLCIA PRIMA® Allulose Syrup comprises allulose in an amount of 71% by weight on a dry solids basis. Accordingly, in the Test Sample, allulose was present at an amount of approximately 1.5% by weight relative to the total weight of the solution. The deionized water was produced by reverse osmosis.
The samples in Table 3 were subjected to 2-AFC testing.
Samples were prepared on the morning of testing. […] Standard ambient fluorescent lighting was used in sensory isolation booths, as is typical in sensory facilities. Products were served blinded and randomized in 2-oz soufflé cups identified with randomized three digit product codes.
The response questionnaires were run using Compusense Cloud. Replicates were not performed for this study. Therefore, simple binomial statistics were applied.

## OC[C@H]1O[C@@](CO)(O[C@H]2O[C@H](CO)[C@@H](O)[C@H](O)[C@H]2O)[C@@H](O)[C@@H]1O [sucrose]
[1]
  Recognition threshold concentration: 1.5 % by weight

## O=C(CO)C(O)C(O)C(O)CO (stereo not shown) [allulose]
Panellists [2]; 2.8875% by weight of allulose vs 1.5% by weight sucrose
  Sweetness compared with sucrose solution (in words): considered to be sweeter than the 1.5% by weight sucrose solution
Panellists [2]; 3.0800% allulose solids
  Sweetness relative to sweetness threshold (in words): clearly above the sweetness threshold
Panellists [2]; allulose 1.9250 weight % in water vs 1.5% by weight sucrose, 50 possible
  Count: number of panellists who selected the sucrose solution as sweeter: 45
Panellists [2]; allulose 2.3100 weight % in water vs 1.5% by weight sucrose, 58 possible
  Count: number of panellists who selected the sucrose solution as sweeter: 49
Panellists [2]; allulose 2.6950 weight % in water vs 1.5% by weight sucrose, 60 possible
  Count: number of panellists who selected the sucrose solution as sweeter: 40
Panellists [2]; allulose 2.8875 weight % in water vs 1.5% by weight sucrose, 44 possible
  Count: number of panellists who selected the allulose solution as sweeter: 26
Panellists [2]; allulose 3.0800 weight % in water vs 1.5% by weight sucrose, 60 possible
  Count: number of panellists who selected the allulose solution as sweeter: 34
Panellists [2]; relative to total weight of the solution, vs 1.5% by weight sucrose
  Amount of allulose in solution considered below its sweetness threshold: ≤ 2.695 % by weight
panelists
  Effect on cotton candy flavor (in words): enhanced the cotton candy flavor
  Effect on preference for the beverage (in words): increased the preference for the beverage
Panellists [3]
  Effect on preference for the beverage (in words): increased the preference for the beverage
  Effect on salted caramel flavor (in words): enhanced the salted caramel flavor
